# Experimental data taken from PubChem BioAssay (NCI).
#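 These data come from cells grown in 96-well plates and exposed to compound for 48 hours at five concentrations. GI50 is the concentration that inhibits growth by half. TGI marks complete inhibition of growth.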
# Assays:
# Experiment in all cases: NCI anticancer screen, dose series, 48 h
# [1] = test system: RXF 393 renal
# [2] = test system: SK-MEL-5 melanoma
# [3] = test system: SNB-19 CNS
# [4] = test system: HOP-92 NSCLC
# [5] = test system: NCI-H226 lung
# [6] = test system: M14 melanoma
# [7] = test system: HCT-15 colon
# [8] = test system: CCRF-CEM leukemia
# [9] = test system: NCI/ADR-RES ovarian
# [10] = test system: 786-0 renal
# [11] = test system: UACC-257 melanoma
# [12] = test system: HL-60(TB) leukemia
# [13] = test system: SW-620 colon
# [14] = test system: KM12 colon
# [15] = test system: OVCAR-8 ovarian
SMILES,TGI [1],TGI [2],TGI [3],TGI [4],TGI [5],TGI [6],TGI [7],TGI [8],TGI [9],TGI [10],TGI [11],TGI [12],TGI [13],TGI [14],TGI [15],GI50 [3],GI50 [4]
CN(C)c1cccc2c(S(=O)(=O)NCCCNCCN)cccc12,75 µM,35.7 µM,> 100 µM,80.4 µM,> 100 µM,33.9 µM,> 100 µM,46 µM,> 100 µM,> 100 µM,> 100 µM,43.8 µM,> 100 µM,> 100 µM,–,–,–
COc1cccc(C=C(C#N)C#N)c1OC,> 100 µM,> 100 µM,> 100 µM,> 100 µM,> 100 µM,> 100 µM,> 100 µM,> 100 µM,> 100 µM,> 100 µM,> 100 µM,> 100 µM,> 100 µM,> 100 µM,> 100 µM,–,–
CCOC(=O)/C=C(/C(=O)OCC)n1cc(C)c(=O)[nH]c1=O,4.52 µM,21.1 µM,32.2 µM,3.72 µM,10.7 µM,3.91 µM,4.92 µM,4.61 µM,33.7 µM,8.28 µM,26 µM,3.91 µM,4.84 µM,29 µM,9.81 µM,–,–
O=C1CCCc2cc3c(cc21)CC1(C3)Cc2cc3c(cc2C1)C(=O)CCC3,> 29.3 µM,7.09 µM,> 100 µM,82.1 µM,23.4 µM,11.8 µM,> 59.6 µM,> 34.2 µM,6.65 µM,64.8 µM,31.2 µM,4.6 µM,> 100 µM,7.85 µM,36.3 µM,–,–
OCCCN=C1N=C(Cl)/C(=C\c2ccccc2)N1,> 100 µM,> 100 µM,> 100 µM,> 100 µM,> 100 µM,> 100 µM,> 100 µM,> 100 µM,> 100 µM,> 100 µM,> 100 µM,> 100 µM,> 100 µM,> 100 µM,> 100 µM,–,–
CC(C)C(=O)/C=C/c1ccc(Cl)cc1Cl,22.2 µM,27.9 µM,29.3 µM,30.8 µM,41 µM,20 µM,25.2 µM,50.7 µM,54.6 µM,27.2 µM,26 µM,> 100 µM,7.92 µM,13.7 µM,22.8 µM,–,–
CNC(=O)OCC1=C(COC(=O)NC)CN(c2ccc(OC)cc2)C1,> 100 µM,> 100 µM,> 100 µM,> 100 µM,41.1 µM,> 100 µM,> 100 µM,> 100 µM,> 100 µM,> 100 µM,> 100 µM,> 100 µM,> 100 µM,> 100 µM,> 100 µM,–,–
COc1ccc(/C=C2/C(=O)N(/C=C3\C(=O)Oc4ccccc4C3=O)C(=NC(C)=O)N2C)cc1OC,> 100 µM,> 100 µM,> 100 µM,> 100 µM,> 100 µM,> 100 µM,> 100 µM,> 100 µM,> 100 µM,> 100 µM,> 100 µM,> 100 µM,> 100 µM,> 100 µM,> 100 µM,> 100 µM,> 100 µM
c1cc2nnc1SCCSCCCSCCS2,> 100 µM,> 100 µM,> 100 µM,> 100 µM,> 100 µM,> 100 µM,> 100 µM,> 100 µM,> 100 µM,> 100 µM,> 100 µM,> 100 µM,> 100 µM,> 100 µM,> 100 µM,–,–
N#CCc1nc(-c2cc3ccc(O)cc3oc2=O)cs1,> 100 µM,> 100 µM,> 100 µM,> 100 µM,> 100 µM,> 100 µM,> 100 µM,> 100 µM,> 100 µM,> 100 µM,> 100 µM,> 100 µM,> 100 µM,> 100 µM,> 100 µM,–,–
O=C1/C(=C\c2cccc(Oc3ccccc3)c2)SC(c2ccccc2)N1Cc1ccccc1 (centres undefined),64 µM,28 µM,92.8 µM,60 µM,90.9 µM,66.7 µM,> 100 µM,45.5 µM,74.4 µM,> 100 µM,87.9 µM,78.3 µM,> 100 µM,83.8 µM,68.9 µM,–,–
O=S(=O)(N1CCCCN(S(=O)(=O)C(F)(F)F)CCCN(S(=O)(=O)C(F)(F)F)CCCCN(S(=O)(=O)C(F)(F)F)CCCN(S(=O)(=O)C(F)(F)F)CCCCN(S(=O)(=O)C(F)(F)F)CCCN(S(=O)(=O)C(F)(F)F)CCCCN(S(=O)(=O)C(F)(F)F)CCC1)C(F)(F)F,> 31.6 µM,> 31.6 µM,> 31.6 µM,> 31.6 µM,> 31.6 µM,> 31.6 µM,> 31.6 µM,> 31.6 µM,> 31.6 µM,> 100 µM,> 31.6 µM,> 31.6 µM,> 31.6 µM,> 31.6 µM,> 31.6 µM,–,–
O=C(O)C(C(F)(F)F)C(F)(F)F (tested in a mixture with another compound),> 100 µM,> 100 µM,> 100 µM,> 100 µM,> 100 µM,> 100 µM,> 100 µM,> 100 µM,> 100 µM,> 100 µM,> 100 µM,> 100 µM,> 100 µM,> 100 µM,> 100 µM,–,–
O=c1oc2ccccc2c(O)c1Cc1ccccc1Cc1c(O)c2ccccc2oc1=O,> 100 µM,> 100 µM,> 100 µM,> 100 µM,> 100 µM,> 100 µM,> 100 µM,> 100 µM,> 100 µM,> 100 µM,> 100 µM,> 100 µM,> 100 µM,> 100 µM,> 100 µM,–,–
O=C(Cc1ccccc1)Nc1nc2ccc(Cl)cc2c2nc(-c3ccco3)nn12,59.7 µM,> 100 µM,> 55.6 µM,57.1 µM,> 82.7 µM,> 100 µM,> 100 µM,> 100 µM,> 100 µM,> 100 µM,> 100 µM,> 100 µM,> 100 µM,> 100 µM,> 100 µM,–,–
CN1CCN(c2ccc3nc(-c4ccc5nc(CCCc6ccc(N(CCCl)CCCl)cc6)[nH]c5c4)[nH]c3c2)CC1,> 100 µM,> 100 µM,> 100 µM,> 100 µM,> 100 µM,> 100 µM,> 100 µM,> 100 µM,> 100 µM,> 100 µM,> 100 µM,> 100 µM,> 100 µM,> 100 µM,> 100 µM,–,–
CCOC(=O)n1ccc2c(C(=O)OC)c(C(=O)OC)cc(/C(=C/C(=O)OC)C(=O)OC)c21,> 100 µM,> 100 µM,> 100 µM,> 100 µM,> 100 µM,> 100 µM,–,> 100 µM,> 100 µM,> 100 µM,> 100 µM,> 100 µM,> 100 µM,> 100 µM,> 100 µM,–,–
N#CC(C#N)=C(N)/C(C#N)=C/c1ccc(O)c(O)c1,> 100 µM,> 100 µM,> 100 µM,> 100 µM,> 100 µM,> 100 µM,> 100 µM,> 100 µM,> 100 µM,> 100 µM,> 100 µM,> 83.3 µM,> 100 µM,> 100 µM,> 100 µM,–,–
NC(=S)NN=C1Cc2ccccc2C1,> 100 µM,> 100 µM,> 100 µM,> 100 µM,> 100 µM,> 100 µM,> 100 µM,> 100 µM,> 100 µM,> 100 µM,> 100 µM,> 100 µM,> 100 µM,> 100 µM,> 100 µM,–,–
CCCCCCCCCCCCCCCCCCOC(COP(=O)(O)OCC1OC(n2cc(F)c(=O)[nH]c2=O)CC1O)COP(=O)(O)OCC1OC(n2ccc(N)nc2=O)C(O)C1O (centres undefined),49.6 µM,> 100 µM,41.2 µM,> 94.8 µM,> 100 µM,62.5 µM,> 100 µM,> 81.2 µM,> 100 µM,28.1 µM,> 100 µM,> 100 µM,> 100 µM,> 100 µM,> 100 µM,–,–
Clc1ccc(C2=Cc3nc2c(-c2ccccc2)c2ccc([nH]2)c(-c2ccccc2)c2nc(c(-c4ccccc4)c4ccc([nH]4)c3-c3ccccc3)C=C2)cc1,> 62.5 µM,> 62.5 µM,> 62.5 µM,> 62.5 µM,> 62.5 µM,> 62.5 µM,> 62.5 µM,> 62.5 µM,> 62.5 µM,> 62.5 µM,> 62.5 µM,> 62.5 µM,> 62.5 µM,> 62.5 µM,> 62.5 µM,–,–
O=C1NC(=O)C23C(=O)NC(=O)C12C1C=CC3CC1 (centres undefined),> 10 µM,> 10 µM,> 10 µM,> 10 µM,> 10 µM,> 10 µM,> 10 µM,> 10 µM,> 10 µM,> 10 µM,> 10 µM,> 10 µM,> 10 µM,> 10 µM,> 10 µM,–,–
Cc1ccc(C2SCc3nc4ccccc4n32)cc1 (centres undefined),6.33 µM,5.28 µM,> 100 µM,70 µM,6.55 µM,> 100 µM,–,> 100 µM,12.5 µM,> 100 µM,68.3 µM,5.94 µM,> 100 µM,20.6 µM,30 µM,–,–
C/C(=N\NC(N)=S)C(CN1CCCCC1)C(C1=C(O)c2ccccc2OC1)c1ccccc1 (centres undefined),> 100 µM,> 100 µM,> 100 µM,> 100 µM,> 100 µM,> 100 µM,> 100 µM,> 100 µM,> 100 µM,> 100 µM,> 100 µM,88.4 µM,> 100 µM,> 100 µM,> 100 µM,–,–
Oc1cc(F)cc2cccnc12,46.4 µM,13.4 µM,> 100 µM,3.1 µM,> 100 µM,22.1 µM,> 100 µM,0.656 µM,6.74 µM,> 100 µM,4.29 µM,0.454 µM,> 100 µM,> 100 µM,> 100 µM,–,–
COc1ccc(N2C(=O)C3c4[nH]c5ccc(OC)cc5c4C4CCC(c5ccccc5)CC4C3C2=O)cc1 (centres undefined),25 µM,> 100 µM,28.8 µM,35.9 µM,> 100 µM,> 56.8 µM,> 100 µM,10.3 µM,33.2 µM,12.2 µM,> 88.9 µM,66 µM,25.1 µM,> 56.3 µM,> 49.2 µM,–,–
CCC12CN(C(=O)OC)C3C(Br)C1CCC(=O)C32 (centres undefined),> 100 µM,> 100 µM,> 100 µM,> 100 µM,> 100 µM,> 100 µM,> 100 µM,> 100 µM,> 100 µM,> 100 µM,> 100 µM,> 100 µM,> 100 µM,> 100 µM,> 100 µM,–,–
CCC1=NC(N/N=C/c2ccco2)=N/C1=C\c1ccco1,> 100 µM,> 100 µM,> 100 µM,> 100 µM,> 100 µM,> 100 µM,> 100 µM,> 100 µM,> 100 µM,> 100 µM,> 100 µM,> 100 µM,> 100 µM,> 100 µM,> 100 µM,–,–
Cc1cc(=O)[nH]c(Sc2ccc([N+](=O)[O-])cc2[N+](=O)[O-])n1,26.1 µM,31.3 µM,> 66.8 µM,19.2 µM,40.9 µM,32.3 µM,28.4 µM,23.1 µM,> 66.3 µM,32.9 µM,44.7 µM,11.3 µM,18.1 µM,> 67.4 µM,30 µM,–,–
CCOC1Oc2ccccc2-c2nc(N)ncc21 (centres undefined),> 100 µM,> 100 µM,> 100 µM,> 100 µM,> 100 µM,> 100 µM,> 100 µM,> 100 µM,> 100 µM,> 100 µM,> 100 µM,62.3 µM,> 100 µM,> 100 µM,> 100 µM,–,–
